According to patent US20140357512A1, “HISTONE DEACETYLASE (HDAC) BIOMARKERS IN MULTIPLE MYELOMA” (priority 2013, published 2014):

Test system: human myeloma cell line MM.1S
Test: Biological pathway analysis of SILAC biomarker peptides against pathway database (broadinstitute gsea)
Procedure: Once biomarker peptides are identified for a specific drug by the SILAC method, the biomarker peptides may be compared to peptides/proteins in a biological pathway database in order to identify major biological pathways or functions implicated by the drug's action. A preferred pathway analysis website is at www dot broadinstitute dot org/gsea/index dot jsp.
This example describes the biological pathway analysis that was performed on each of Compound A, Compound B, and Tubastatin A.
Once biomarker peptides were identified for a specific drug (either Compound A, Compound B, or Tubastatin A) by the SILAC method in Example 1, the biomarker peptides were compared to peptides/proteins in the biological pathway database at www dot broadinstitute dot org/gsea/index dot jsp in order to identify major biological pathways or functions implicated by the drug's action.

## O=C(CCCCCCNC(=O)c1cnc(N(c2ccccc2)c2ccccc2)nc1)NO [Compound A, 2-(diphenylamino)-N-(7-(hydroxyamino)-7-oxoheptyl)pyrimidine-5-carboxamide]
Pathway_size 48
  Observed: number of genes in pathway REACTOME_PACKAGING_OF_TELOMERE_ENDS: 35
  Ratio observed/pathway size, REACTOME_PACKAGING_OF_TELOMERE_ENDS: 0.7292
Pathway_size 61
  Observed: number of genes in pathway REACTOME_RNA_POL_I_PROMOTER_OPENING: 49
  Ratio observed/pathway size, REACTOME_RNA_POL_I_PROMOTER_OPENING: 0.8033
Pathway_size 64
  Observed: number of genes in pathway REACTOME_DEPOSITION_OF_NEW_CENPA_CONTAINING_NUCLEOSOMES_AT_THE_CENTROMERE: 34
  Ratio observed/pathway size, REACTOME_DEPOSITION_OF_NEW_CENPA_CONTAINING_NUCLEOSOMES_AT_THE_CENTROMERE: 0.5312
Pathway_size 66
  Observed: number of genes in pathway […]_UNKNOWN: 32
  Ratio observed/pathway size, […]_UNKNOWN: 0.4848
Pathway_size 70
  Observed: number of genes in pathway GCM_TPT1: 37
  Ratio observed/pathway size, GCM_TPT1: 0.5286
Pathway_size 71
  Observed: number of genes in pathway REACTOME_MEIOTIC_SYNAPSIS: 35
  Ratio observed/pathway size, REACTOME_MEIOTIC_SYNAPSIS: 0.493
Pathway_size 75
  Observed: number of genes in pathway REACTOME_TELOMERE_MAINTENANCE: 36
  Ratio observed/pathway size, REACTOME_TELOMERE_MAINTENANCE: 0.48
Pathway_size 80
  Observed: number of genes in pathway STRUCTURAL_CONSTITUENT_OF_RIBOSOME: 33
  Ratio observed/pathway size, STRUCTURAL_CONSTITUENT_OF_RIBOSOME: 0.4125
Pathway_size 81
  Observed: number of genes in pathway MIPS_RIBOSOME_CYTOPLASMIC: 42
  Observed: number of genes in pathway REACTOME_AMYLOIDS: 49
  Ratio observed/pathway size, MIPS_RIBOSOME_CYTOPLASMIC: 0.5185
  Ratio observed/pathway size, REACTOME_AMYLOIDS: 0.6049
Pathway_size 84
  Observed: number of genes in pathway REACTOME_MEIOTIC_RECOMBINATION: 50
  Ratio observed/pathway size, REACTOME_MEIOTIC_RECOMBINATION: 0.5952
Pathway_size 86
  Observed: number of genes in pathway REACTOME_RNA_POL_I_TRANSCRIPTION: 50
  Ratio observed/pathway size, REACTOME_RNA_POL_I_TRANSCRIPTION: 0.5814
Pathway_size 88
  Observed: number of genes in pathway KEGG_RIBOSOME: 42
  Ratio observed/pathway size, KEGG_RIBOSOME: 0.4773
Pathway_size 102
  Observed: number of genes in pathway MORF_TPT1: 40
  Ratio observed/pathway size, MORF_TPT1: 0.3922
Pathway_size 104
  Observed: number of genes in pathway MIPS_NOP56P_ASSOCIATED_PRE_RRNA_COMPLEX: 44
  Ratio observed/pathway size, MIPS_NOP56P_ASSOCIATED_PRE_RRNA_COMPLEX: 0.4231
Pathway_size 112
  Observed: number of genes in pathway REACTOME_MEIOSIS: 50
  Ratio observed/pathway size, REACTOME_MEIOSIS: 0.4464
Pathway_size 116
  Observed: number of genes in pathway GCM_NPM1: 41
  Ratio observed/pathway size, GCM_NPM1: 0.3534
Pathway_size 119
  Observed: number of genes in pathway REACTOME_RNA_POL_I_RNA_POL_III_AND_MITOCHONDRIAL_TRANSCRIPTION: 50
  Ratio observed/pathway size, REACTOME_RNA_POL_I_RNA_POL_III_AND_MITOCHONDRIAL_TRANSCRIPTION: 0.4202
Pathway_size 121
  Observed: number of genes in pathway GNF2_EIF3S6: 41
  Ratio observed/pathway size, GNF2_EIF3S6: 0.3388
Pathway_size 124
  Observed: number of genes in pathway GCM_ACTG1: 39
  Ratio observed/pathway size, GCM_ACTG1: 0.3145
Pathway_size 138
  Observed: number of genes in pathway MORF_ACTG1: 53
  Ratio observed/pathway size, MORF_ACTG1: 0.3841
Pathway_size 139
  Observed: number of genes in pathway KEGG_SYSTEMIC_LUPUS_ERYTHEMATOSUS: 54
  Ratio observed/pathway size, KEGG_SYSTEMIC_LUPUS_ERYTHEMATOSUS: 0.3885
Pathway_size 145
  Observed: number of genes in pathway REACTOME_PEPTIDE_CHAIN_ELONGATION: 41
  Ratio observed/pathway size, REACTOME_PEPTIDE_CHAIN_ELONGATION: 0.2828
Pathway_size 154
  Observed: number of genes in pathway MORF_NME2: 48
  Ratio observed/pathway size, MORF_NME2: 0.3117
Pathway_size 161
  Observed: number of genes in pathway REACTOME_INFLUENZA_VIRAL_RNA_TRANSCRIPTION_AND_REPLICATION: 42
  Ratio observed/pathway size, REACTOME_INFLUENZA_VIRAL_RNA_TRANSCRIPTION_AND_REPLICATION: 0.2609
Pathway_size 162
  Observed: number of genes in pathway MORF_NPM1: 59
  Ratio observed/pathway size, MORF_NPM1: 0.3642
Pathway_size 166
  Observed: number of genes in pathway REACTOME_3_UTR_MEDIATED_TRANSLATIONAL_REGULATION: 43
  Ratio observed/pathway size, REACTOME_3_UTR_MEDIATED_TRANSLATIONAL_REGULATION: 0.259
Pathway_size 167
  Observed: number of genes in pathway REACTOME_NONSENSE_MEDIATED_DECAY_ENHANCED_BY_THE_EXON_JUNCTION_COMPLEX: 41
  Ratio observed/pathway size, REACTOME_NONSENSE_MEDIATED_DECAY_ENHANCED_BY_THE_EXON_JUNCTION_COMPLEX: 0.2455
Pathway_size 170
  Observed: number of genes in pathway REACTOME_SRP_DEPENDENT_COTRANSLATIONAL_PROTEIN_TARGETING_TO_MEMBRANE: 46
  Ratio observed/pathway size, REACTOME_SRP_DEPENDENT_COTRANSLATIONAL_PROTEIN_TARGETING_TO_MEMBRANE: 0.2706
Pathway_size 195
  Observed: number of genes in pathway REACTOME_INFLUENZA_LIFE_CYCLE: 47
  Ratio observed/pathway size, REACTOME_INFLUENZA_LIFE_CYCLE: 0.241
Pathway_size 197
  Observed: number of genes in pathway MORF_ANP32B: 43
  Ratio observed/pathway size, MORF_ANP32B: 0.2183
Pathway_size 207
  Observed: number of genes in pathway REACTOME_TRANSCRIPTION: 53
  Ratio observed/pathway size, REACTOME_TRANSCRIPTION: 0.256
Pathway_size 211
  Observed: number of genes in pathway REACTOME_TRANSLATION: 48
  Ratio observed/pathway size, REACTOME_TRANSLATION: 0.2275
Pathway_size 238
  Observed: number of genes in pathway MORF_UBE2I: 55
  Ratio observed/pathway size, MORF_UBE2I: 0.2311
Pathway_size 268
  Observed: number of genes in pathway MORF_RAN: 53
  Ratio observed/pathway size, MORF_RAN: 0.1978
Pathway_size 318
  Observed: number of genes in pathway MODULE_151: 61
  Ratio observed/pathway size, MODULE_151: 0.1918
Pathway_size 320
  Observed: number of genes in pathway MODULE_83: 65
  Ratio observed/pathway size, MODULE_83: 0.2031
Pathway_size 338
  Observed: number of genes in pathway MODULE_114: 64
  Ratio observed/pathway size, MODULE_114: 0.1893
Pathway_size 389
  Observed: number of genes in pathway HSIAO_HOUSEKEEPING_GENES: 87
  Ratio observed/pathway size, HSIAO_HOUSEKEEPING_GENES: 0.2236
Pathway_size 429
  Observed: number of genes in pathway MOOTHA_HUMAN_MITODB_6_2002: 66
  Ratio observed/pathway size, MOOTHA_HUMAN_MITODB_6_2002: 0.1538
Pathway_size 447
  Observed: number of genes in pathway MOOTHA_MITOCHONDRIA: 57
  Ratio observed/pathway size, MOOTHA_MITOCHONDRIA: 0.1275
Pathway_size 496
  Observed: number of genes in pathway REACTOME_METABOLISM_OF_PROTEINS: 69
  Ratio observed/pathway size, REACTOME_METABOLISM_OF_PROTEINS: 0.1391
Pathway_size 681
  Observed: number of genes in pathway KIM_BIPOLAR_DISORDER_OLIGODENDROCYTE_DENSITY_CORR_UP: 64
  Ratio observed/pathway size, KIM_BIPOLAR_DISORDER_OLIGODENDROCYTE_DENSITY_CORR_UP: 0.09398
Pathway_size 841
  Observed: number of genes in pathway MARTENS_TRETINOIN_RESPONSE_DN: 69
  Ratio observed/pathway size, MARTENS_TRETINOIN_RESPONSE_DN: 0.08205
Pathway_size 870
  Observed: number of genes in pathway GRADE_COLON_CANCER_UP: 75
  Ratio observed/pathway size, GRADE_COLON_CANCER_UP: 0.08621
Pathway_size 1102
  Observed: number of genes in pathway DANG_BOUND_BY_MYC: 88
  Ratio observed/pathway size, DANG_BOUND_BY_MYC: 0.07985
Pathway_size 1237
  Observed: number of genes in pathway BLALOCK_ALZHEIMERS_DISEASE_DN: 81
  Ratio observed/pathway size, BLALOCK_ALZHEIMERS_DISEASE_DN: 0.06548
Pathway_size 1383
  Observed: number of genes in pathway CYTOPLASMIC_PART: 96
  Ratio observed/pathway size, CYTOPLASMIC_PART: 0.06941
Pathway_size 1651
  Observed: number of genes in pathway PUJANA_BRCA1_PCC_NETWORK: 107
  Ratio observed/pathway size, PUJANA_BRCA1_PCC_NETWORK: 0.06481
Pathway_size 2130
  Observed: number of genes in pathway CYTOPLASM: 117
  Ratio observed/pathway size, CYTOPLASM: 0.05493
